# Assay results from ChEMBL document CHEMBL5614417, “Discovery of AMPs from random peptides via deep learning-based model and biological activity validation” (Eur J Med Chem, 2024).
# Calls of active or inactive are those of the source. The rule behind the calls is not given here. Where a SMILES comes first, the peptide text is derived from it.
# Assays:
# Staphylococcus aureus [1] = assay: Antibacterial activity against Staphylococcus aureus ATCC 25923 incubated for 18 hrs by visual inspection method; type: functional
# [2] = system: Staphylococcus epidermidis; assay: Antibacterial activity against Staphylococcus epidermidis ATCC 12228 incubated for 18 hrs by visual inspection method; type: functional
# Bacillus subtilis = assay: Antibacterial activity against Bacillus subtilis ATCC 23857 incubated for 18 hrs by visual inspection method; type: functional
# Staphylococcus aureus [3] = assay: Antibacterial activity against methicillin resistant Staphylococcus aureus 1 incubated for 18 hrs by visual inspection method; type: functional
# Staphylococcus aureus [4] = assay: Antibacterial activity against methicillin resistant Staphylococcus aureus 2 incubated for 18 hrs by visual inspection method; type: functional
# Staphylococcus aureus [5] = assay: Antibacterial activity against methicillin resistant Staphylococcus aureus 3 incubated for 18 hrs by visual inspection method; type: functional
# Staphylococcus aureus [6] = assay: Antibacterial activity against methicillin resistant Staphylococcus aureus 4 incubated for 18 hrs by visual inspection method; type: functional
# Staphylococcus aureus [7] = assay: Antibacterial activity against Staphylococcus aureus infected in BALB/c mouse at 10 mg/kg administered every 4 hrs for 3 doses and measured after 4 hrs post last dose; type: functional, organism-based; conditions: time 16.0 hrs
# Escherichia coli [8] = assay: Antibacterial activity against Escherichia coli ATCC 25922 incubated for 18 hrs by visual inspection method; type: functional
# Acinetobacter baumannii [9] = assay: Antibacterial activity against Acinetobacter baumannii ATCC 19606 incubated for 18 hrs by visual inspection method; type: functional
# Klebsiella pneumoniae = assay: Antibacterial activity against Klebsiella pneumoniae ATCC 700603 incubated for 18 hrs by visual inspection method; type: functional
# Escherichia coli [10] = assay: Antibacterial activity against ESBL Escherichia coli 1 incubated for 18 hrs by visual inspection method; type: functional
# Escherichia coli [11] = assay: Antibacterial activity against ESBL Escherichia coli 2 incubated for 18 hrs by visual inspection method; type: functional
# Escherichia coli [12] = assay: Antibacterial activity against ESBL Escherichia coli 3 incubated for 18 hrs by visual inspection method; type: functional
# Escherichia coli [13] = assay: Antibacterial activity against ESBL Escherichia coli 4 incubated for 18 hrs by visual inspection method; type: functional
# Escherichia coli [14] = assay: Antibacterial activity against ESBL Escherichia coli 5 incubated for 18 hrs by visual inspection method; type: functional
# Acinetobacter baumannii [15] = assay: Antibacterial activity against multidrug resistant Acinetobacter baumannii 1 incubated for 18 hrs by visual inspection method; type: functional
# Acinetobacter baumannii [16] = assay: Antibacterial activity against multidrug resistant Acinetobacter baumannii 2 incubated for 18 hrs by visual inspection method; type: functional
# Acinetobacter baumannii [17] = assay: Antibacterial activity against multidrug resistant Acinetobacter baumannii 3 incubated for 18 hrs by visual inspection method; type: functional
# Acinetobacter baumannii [18] = assay: Antibacterial activity against multidrug resistant Acinetobacter baumannii 4 incubated for 18 hrs by visual inspection method; type: functional
# Acinetobacter baumannii [19] = assay: Antibacterial activity against multidrug resistant Acinetobacter baumannii 5 incubated for 18 hrs by visual inspection method; type: functional
# Erythrocyte [20] = assay: Hemolytic activity in rat erythrocytes incubated for 1 hr; type: toxicity, cell-based
# Staphylococcus aureus [21] = assay: Antibacterial activity against Staphylococcus aureus ATCC 25923 incubated for 18 hrs in presence of 50 mM NaCl by visual inspection method; type: functional
# Staphylococcus aureus [22] = assay: Antibacterial activity against Staphylococcus aureus ATCC 25923 incubated for 18 hrs in presence of 100 mM NaCl by visual inspection method; type: functional
# Staphylococcus aureus [23] = assay: Antibacterial activity against Staphylococcus aureus ATCC 25923 incubated for 18 hrs in presence of 150 mM NaCl by visual inspection method; type: functional
# Escherichia coli [24] = assay: Antibacterial activity against Escherichia coli ATCC 25922 incubated for 18 hrs in presence of 50 mM NaCl by visual inspection method; type: functional
# Escherichia coli [25] = assay: Antibacterial activity against Escherichia coli ATCC 25922 incubated for 18 hrs in presence of 100 mM NaCl by visual inspection method; type: functional
# Escherichia coli [26] = assay: Antibacterial activity against Escherichia coli ATCC 25922 incubated for 18 hrs in presence of 150 mM NaCl by visual inspection method; type: functional
# [27] = Hemolytic activity in rat erythrocytes at 1000 ug/ml incubated for 1 hr; type: toxicity, cell-based, Erythrocyte; conditions: at 1000 µg/mL, read-out: Activity
# Erythrocyte [28] = assay: Hemolytic activity in rat erythrocytes at 500 to 1000 ug/ml incubated for 1 hr; type: toxicity, cell-based; conditions: dose 500-1000 µg/ml
# Erythrocyte [29] = assay: Hemolytic activity in rat erythrocytes at 250 ug/ml incubated for 1 hr; type: toxicity, cell-based; conditions: dose 250 µg/ml
# [30] = Stability in Sprague-Dawley rat serum at 62.5 ug/ml measured upto 480 mins by RP-HPLC method; type: ADME, cell-free; conditions: 8 h, at 62.5 µg/mL
# Cell membrane [31] = assay: Induction of cell membrane damage in Staphylococcus aureus assessed as decrease in red/green fluorescence ratio by DiOC2(3) fluorescent probe based assay; type: cell membranes
# Cell membrane [32] = assay: Induction of cell membrane damage in Staphylococcus aureus assessed as decrease in red/green fluorescence ratio at 2 times MIC by DiOC2(3) fluorescent probe based assay; type: cell membranes
# Cell membrane [33] = assay: Disruption of outer membrane integrity in Escherichia coli assessed as increase in fluorescence intensity by measuring NPN uptake at 1 to 4 times MIC by fluorescence based analysis; type: cell membranes; conditions: TDE = time-dependent effect
# Cell membrane [34] = assay: Disruption of outer membrane integrity in Escherichia coli assessed as increase in fluorescence intensity by measuring NPN uptake measured every min for 15 mins by fluorescence based analysis; type: cell membranes
# Cell membrane [35] = assay: Induction of inner membrane permeability in Escherichia coli ML-35 at 1 to 4 times MIC by ONPG dye based assay; type: cell membranes; conditions: TDE = time-dependent effect
# Cell membrane [36] = assay: Induction of inner membrane permeability in Escherichia coli ML-35 measured every 5 mins for 90 mins by ONPG dye based assay; type: cell membranes
# Cell membrane [37] = assay: Induction of cell membrane damage in Staphylococcus aureus at 4 times MIC incubated for 30 mins by PI staining based confocal laser scanning microscopic analysis; type: cell membranes
# Cell membrane [38] = assay: Induction of cell membrane damage in Escherichia coli at 4 times MIC incubated for 30 mins by PI staining based confocal laser scanning microscopic analysis; type: cell membranes
# Cell membrane [39] = assay: Induction of cell membrane damage in Staphylococcus aureus assessed as change in morphology by measuring roughened membrane at 4 times MIC incubated for 5 hrs by SEM analysis; type: cell membranes
# Cell membrane [40] = assay: Induction of cell membrane damage in Staphylococcus aureus assessed as change in morphology by measuring deformed membrane at 4 times MIC incubated for 5 hrs by SEM analysis; type: cell membranes
# Cell membrane [41] = assay: Induction of cell membrane damage in Staphylococcus aureus assessed as change in morphology by measuring numerous blebs covered membrane at 4 times MIC incubated for 5 hrs by SEM analysis; type: cell membranes
# Cell membrane [42] = assay: Induction of cell membrane damage in Escherichia coli assessed as change in morphology by measuring roughened membrane at 4 times MIC incubated for 5 hrs by SEM analysis; type: cell membranes
# Cell membrane [43] = assay: Induction of cell membrane damage in Escherichia coli assessed as change in morphology by measuring deformed membrane at 4 times MIC incubated for 5 hrs by SEM analysis; type: cell membranes
# Cell membrane [44] = assay: Induction of cell membrane damage in Escherichia coli assessed as change in morphology by measuring numerous blebs covered membrane at 4 times MIC incubated for 5 hrs by SEM analysis; type: cell membranes
molecule,measurement,setting,value
CN[C@H](CC(C)C)C(=O)N[C@H]1C(=O)N[C@@H](CC(N)=O)C(=O)N[C@H]2C(=O)N[C@H]3C(=O)N[C@H](C(=O)N[C@H](C(=O)O)c4cc(O)cc(O)c4-c4cc3ccc4O)[C@H](O)c3ccc(c(Cl)c3)Oc3cc2cc(c3O[C@@H]2O[C@H](CO)[C@@H](O)[C@H](O)[C@H]2O[C@H]2C[C@](C)(N)[C@H](O)[C@H](C)O2)Oc2ccc(cc2Cl)[C@H]1O [VANCOMYCIN],MIC,Staphylococcus aureus [1],0.94 µg/mL
same,MIC,[2],0.94 µg/mL
same,MIC,Bacillus subtilis,0.94 µg/mL
same,MIC,Staphylococcus aureus [3],0.94 µg/mL
same,MIC,Staphylococcus aureus [4],0.94 µg/mL
same,MIC,Staphylococcus aureus [5],0.94 µg/mL
same,MIC,Staphylococcus aureus [6],0.94 µg/mL
same,Activity,Staphylococcus aureus [7],Active
CC[C@H](C)[C@H](NC(=O)[C@@H](N)CCCNC(=N)N)C(=O)NCC(=O)N[C@@H](Cc1c[nH]c2ccccc12)C(=O)N[C@@H](CS)C(=O)N[C@@H](C)C(=O)N[C@@H](Cc1c[nH]c2ccccc12)C(=O)N[C@@H](CC(C)C)C(=O)N[C@@H](CC(C)C)C(=O)N[C@@H](CCCCN)C(=O)N[C@@H](CC(N)=O)C(=O)N[C@@H](CCCCN)C(=O)N[C@@H](C)C(N)=O (H-RIGWCAWLLKNKA-NH2),MIC,Staphylococcus aureus [1],60 µg/mL
same,MIC,[2],15 µg/mL
same,MIC,Bacillus subtilis,15 µg/mL
same,MIC,Escherichia coli [8],30 µg/mL
same,MIC,Acinetobacter baumannii [9],15 µg/mL
same,MIC,Klebsiella pneumoniae,60 µg/mL
same,MIC,Staphylococcus aureus [3],60 µg/mL
same,MIC,Staphylococcus aureus [4],60 µg/mL
same,MIC,Staphylococcus aureus [5],60 µg/mL
same,MIC,Staphylococcus aureus [6],60 µg/mL
same,MIC,Escherichia coli [10],30 µg/mL
same,MIC,Escherichia coli [11],30 µg/mL
same,MIC,Escherichia coli [12],30 µg/mL
same,MIC,Escherichia coli [13],30 µg/mL
same,MIC,Escherichia coli [14],30 µg/mL
same,MIC,Acinetobacter baumannii [15],15 µg/mL
same,MIC,Acinetobacter baumannii [16],15 µg/mL
same,MIC,Acinetobacter baumannii [17],15 µg/mL
same,MIC,Acinetobacter baumannii [18],15 µg/mL
same,MIC,Acinetobacter baumannii [19],15 µg/mL
same,HC5,Erythrocyte [20],779.41 µg/mL
same,MIC,Staphylococcus aureus [21],60 µg/mL
same,MIC,Staphylococcus aureus [22],60 µg/mL
same,MIC,Staphylococcus aureus [23],60 µg/mL
same,MIC,Escherichia coli [24],30 µg/mL
same,MIC,Escherichia coli [25],30 µg/mL
same,MIC,Escherichia coli [26],30 µg/mL
same,"hemolysis at 1 h, 1000 ug/ml",[27],8.18%
same,Activity,Erythrocyte [28],Toxic
same,Activity,Erythrocyte [29],Non-Toxic
same,Stability,[30],Unstable
same,Activity,Cell membrane [31],Dose-Dependent Effect
same,Activity,Cell membrane [32],Active
same,Activity,Cell membrane [33],Tde
same,Activity,Cell membrane [34],Dose-Dependent Effect
same,Activity,Cell membrane [35],Tde
same,Activity,Cell membrane [36],Dose-Dependent Effect
same,Activity,Cell membrane [37],Active
same,Activity,Cell membrane [38],Active
same,Activity,Cell membrane [39],Active
same,Activity,Cell membrane [40],Active
same,Activity,Cell membrane [41],Active
same,Activity,Cell membrane [42],Active
same,Activity,Cell membrane [43],Active
same,Activity,Cell membrane [44],Active
CC[C@H](C)[C@H](NC(=O)[C@H](Cc1c[nH]c2ccccc12)NC(=O)CNC(=O)[C@H](CCC(N)=O)NC(=O)[C@@H](N)CCCNC(=N)N)C(=O)N[C@@H](Cc1c[nH]c2ccccc12)C(=O)N[C@@H](Cc1ccc(O)cc1)C(=O)NCC(=O)N[C@@H](Cc1ccccc1)C(=O)N[C@@H](Cc1ccccc1)C(=O)N[C@@H](Cc1c[nH]c2ccccc12)C(=O)N[C@@H](CCCCN)C(=O)N[C@@H](CCCCN)C(N)=O (H-RQGWIWYGFFWKK-NH2),MIC,Staphylococcus aureus [1],7.5 µg/mL
same,MIC,[2],3.75 µg/mL
same,MIC,Bacillus subtilis,7.5 µg/mL
same,MIC,Escherichia coli [8],30 µg/mL
same,MIC,Acinetobacter baumannii [9],15 µg/mL
same,MIC,Klebsiella pneumoniae,60 µg/mL
same,MIC,Staphylococcus aureus [3],7.5 µg/mL
same,MIC,Staphylococcus aureus [4],7.5 µg/mL
same,MIC,Staphylococcus aureus [5],7.5 µg/mL
same,MIC,Staphylococcus aureus [6],7.5 µg/mL
same,MIC,Escherichia coli [10],30 µg/mL
same,MIC,Escherichia coli [11],30 µg/mL
same,MIC,Escherichia coli [12],30 µg/mL
same,MIC,Escherichia coli [13],30 µg/mL
same,MIC,Escherichia coli [14],30 µg/mL
same,MIC,Acinetobacter baumannii [15],15 µg/mL
same,MIC,Acinetobacter baumannii [16],15 µg/mL
same,MIC,Acinetobacter baumannii [17],15 µg/mL
same,MIC,Acinetobacter baumannii [18],15 µg/mL
same,MIC,Acinetobacter baumannii [19],15 µg/mL
same,HC5,Erythrocyte [20],560.73 µg/mL
same,MIC,Staphylococcus aureus [21],7.5 µg/mL
same,MIC,Staphylococcus aureus [22],7.5 µg/mL
same,MIC,Staphylococcus aureus [23],7.5 µg/mL
same,MIC,Escherichia coli [24],30 µg/mL
same,MIC,Escherichia coli [25],30 µg/mL
same,MIC,Escherichia coli [26],30 µg/mL
same,"hemolysis at 1 h, 1000 ug/ml",[27],7.47%
same,Activity,Erythrocyte [28],Toxic
same,Activity,Erythrocyte [29],Non-Toxic
same,Activity,Cell membrane [31],Dose-Dependent Effect
same,Activity,Cell membrane [32],Active
same,Activity,Cell membrane [33],Tde
same,Activity,Cell membrane [34],Dose-Dependent Effect
same,Activity,Cell membrane [35],Tde
same,Activity,Cell membrane [36],Dose-Dependent Effect
same,Activity,Cell membrane [37],Active
same,Activity,Cell membrane [38],Active
same,Activity,Cell membrane [39],Active
same,Activity,Cell membrane [40],Active
same,Activity,Cell membrane [41],Active
same,Activity,Cell membrane [42],Active
same,Activity,Cell membrane [43],Active
same,Activity,Cell membrane [44],Active
POLYMYXIN B,MIC,Escherichia coli [8],1.88 µg/mL
same,MIC,Acinetobacter baumannii [9],1.88 µg/mL
same,MIC,Klebsiella pneumoniae,1.88 µg/mL
same,MIC,Escherichia coli [10],1.88 µg/mL
same,MIC,Escherichia coli [11],1.88 µg/mL
same,MIC,Escherichia coli [12],1.88 µg/mL
same,MIC,Escherichia coli [13],1.88 µg/mL
same,MIC,Escherichia coli [14],1.88 µg/mL
same,MIC,Acinetobacter baumannii [15],1.88 µg/mL
same,MIC,Acinetobacter baumannii [16],1.88 µg/mL
same,MIC,Acinetobacter baumannii [17],1.88 µg/mL
same,MIC,Acinetobacter baumannii [18],1.88 µg/mL
same,MIC,Acinetobacter baumannii [19],1.88 µg/mL
